Experimental data as given in US20240166622A1, “FLUORINATED QUINOLINE, QUINOXALINE AND BENZO[B][1,4]OXAZINE DERIVATIVES AS DIHYDROOROTATE DEHYDROGENASE (DHODH) INHIBITORS FOR THE TREATMENT OF CANCER, AUTOIMMUNE AND INFLAMMATORY DISEASES” (Janssen Biotech, Inc., priority 2019, published 2024).

Key:
human DHODH = human DHODH (Homo sapiens (Human), UniProt Q02127); assay: DHODH Enzymatic Assay; type: biochemical; details: purified human DHODH, DCIP absorbance, end-point mode
Procedure: To detect DHODH enzyme activities, dichloroindophenol (DCIP) is added as the final electron acceptor in the assay. DCIP can accept electrons from the reduced coenzyme Q generated in the assay, or from dihydroorotate (DHO) via FMN by binding presumably to the ubiquinone pocket. […] The assay buffer contained […], pH 7.5, 150 mM NaCl, 0.5 mM EDTA, and 0.1% Triton X-100 in MilliQ water. Substrate consisting of 20 mM DHO, 5 mM CoQ6, and 1 mM DCIP in assay buffer, initiates the reaction. […] Absorbance measurements were obtained using the BMG Phera Star plate-reading spectrophotomer. Purified human DHODH was purchased from Proteros (cat. No. PR-0044). Chemicals were purchased from Sigma-Aldrich, Teknova, and Avanti Polar Lipids. Liquid handling was performed using Labcyte Echo and Formulatrix Tempest.

MOLM-13 cells = assay: MOLM-13 Cellular Assay; type: cell-based; details: Homo sapiens, 72 hours, cell viability by CellTiter-Glo
Procedure: MOLM-13 cells were obtained from DSMZ and were maintained in RPMI 1640+Glutamax+25 mM HEPES (Invitrogen, catalog number 72400) supplemented with 10% heat inactivated fetal bovine serum (FBS; Invitrogen, catalog number 16140). The day prior to assay set-up, cells were pelleted, resuspended in fresh media, counted, and cells were plated at 0.4×10^6 cell/mL in a T150 flask. On the day of the assay, cells were pelleted, resuspend in fresh media, counted, and seeded at 5,000 cells/well in white opaque 96-well tissue culture treated microplates (Perkin Elmer, catalog number 6005680). Cells were exposed to different concentrations of test compounds at 37° C., 5% CO2 for 72 hours immediately after seeding. Cell viability was acquired on a Perkin Elmer Envision 2104 multilabel reader using the CellTiter-Glo assay (Promega) according to the manufacturer's instructions.

human DHODH, sequence (Q02127 whole entry): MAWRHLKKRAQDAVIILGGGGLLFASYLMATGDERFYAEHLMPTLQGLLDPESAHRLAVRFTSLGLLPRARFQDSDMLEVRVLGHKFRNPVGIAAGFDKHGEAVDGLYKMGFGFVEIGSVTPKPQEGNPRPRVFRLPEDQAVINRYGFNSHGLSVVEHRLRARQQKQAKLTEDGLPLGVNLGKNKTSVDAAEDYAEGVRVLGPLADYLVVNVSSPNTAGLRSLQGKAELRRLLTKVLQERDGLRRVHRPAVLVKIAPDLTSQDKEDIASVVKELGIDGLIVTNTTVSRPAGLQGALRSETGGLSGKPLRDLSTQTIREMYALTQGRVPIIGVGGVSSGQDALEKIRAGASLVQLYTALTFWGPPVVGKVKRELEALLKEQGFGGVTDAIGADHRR

| SMILES | IC50 (human DHODH) [nM] | IC50 (MOLM-13 cells) [nM] |
| --- | --- | --- |
| CCn1c(CO)nn(-c2cc3c(cc2F)NC(c2ccccc2C)CC3C(C)C)c1=O (racemic) [Example 13, Racemic 4-Ethyl-2-(7-fluoro-4-isopropyl-2-(o-tolyl)-1,2,3,4-tetrahydroquinolin-6-yl)-5-(hydroxymethyl)-2,4-dihydro-3H-1,2,4-triazol-3-one] | 51.7 | 20 |
| CCn1c(CO)nn(-c2cc3c(cc2F)[C@H](O)[C@@H](c2ccccc2C)CN3C(C)C)c1=O (stereo in doubt) [Example 17, 4-Ethyl-2-((3S*,4R*)-6-fluoro-4-hydroxy-1-isopropyl-3-(o-tolyl)-1,2,3,4-tetrahydroquinolin-7-yl)-5-(hydroxymethyl)-2,4-dihydro-3H-1,2,4-triazol-3-one] | 173 | ~100 |
| CCn1c(CO)nn(-c2cc3c(cc2F)N[C@@H](c2ccccc2C)C[C@H]3C(C)C)c1=O (stereo in doubt) [Example 22, 4-Ethyl-2-((2R*,4S*)-7-fluoro-4-isopropyl-2-(0-tolyl)-1,2,3,4-tetrahydroquinolin-6-yl)-5-(hydroxymethyl)-2,4-dihydro-3H-1,2,4-triazol-3-one] | 113 | 30 |
| CCn1c(CO)nn(-c2cc3c(cc2F)N[C@H](c2ccccc2C)C[C@@H]3C(C)C)c1=O (stereo in doubt) [Example 23, 4-Ethyl-2-((2R*,4S*)-7-fluoro-4-isopropyl-2-(o-tolyl)-1,2,3,4-tetrahydroquinolin-6-yl)-5-(hydroxymethyl)-2,4-dihydro-3H-1,2,4-triazol-3-one] | 49.2 | 10 |
| CCn1c(CO)nn(-c2cc3c(cc2F)c(=O)c(-c2cccc(F)c2)cn3C(C)C)c1=O [Example 1, 7-(4-Ethyl-3-(hydroxymethyl)-5-oxo-4,5-dihydro-1H-1,2,4-triazol-1-yl)-6-fluoro-3-(3-fluorophenyl)-1-isopropylquinolin-4(1H)-one] | 528 | 400 |
| CCn1c(CO)nn(-c2ccc3c(c2)N([C@@H](C)C(F)(F)F)C(=O)C(c2ccccc2SC)N3)c1=O (stereo partly drawn) [Example 2, 7-(4-Ethyl-3-(hydroxymethyl)-5-oxo-4,5-dihydro-1H-1,2,4-triazol-1-yl)-3-(2-(methylthio)phenyl)-1-((S)-1,1,1-trifluoropropan-2-yl)-3,4-dihydroquinoxalin-2(1H)-one] | 588 | 100 |
| CCn1c(CO)nn(-c2ccc3c(c2)N([C@@H](C)C(F)(F)F)C(=O)C(c2c(F)cccc2Cl)N3)c1=O (stereo partly drawn) [Example 3, 3-(2-Chloro-6-fluorophenyl)-7-(4-ethyl-3-(hydroxymethyl)-5-oxo-4,5-dihydro-1H-1,2,4-triazol-1-yl)-1-((S)-1,1,1-trifluoropropan-2-yl)-3,4-dihydroquinoxalin-2(1H)-one] | 293 | 100 |
| CCn1c(CO)nn(-c2cc3c(cc2F)OC(c2c(F)cccc2Cl)C(=O)N3C(C)C)c1=O (stereo not drawn) [Example 5, 2-(2-Chloro-6-fluorophenyl)-6-(4-ethyl-3-(hydroxymethyl)-5-oxo-4,5-dihydro-1H-1,2,4-triazol-1-yl)-7-fluoro-4-isopropyl-2H-benzo[b][1,4]oxazin-3(4H)-one] | 42.3 | 50 |
| CCn1c(CO)nn(-c2cc3c(cc2F)c(=O)c(-c2cc(C)ccc2F)cn3C(C)C)c1=O [Example 9, 7-(4-Ethyl-3-(hydroxymethyl)-5-oxo-4,5-dihydro-1H-1,2,4-triazol-1-yl)-6-fluoro-3-(2-fluoro-5-methylphenyl)-1-isopropylquinolin-4(1H)-one] | 58.2 | > 100 |
| CCn1c(CO)nn(-c2cc3c(cc2F)c(=O)c(-c2ccccc2C)cn3C(C)C)c1=O [Example 10, 7-(4-Ethyl-3-(hydroxymethyl)-5-oxo-4,5-dihydro-TH-1,2,4-triazol-1-yl)-6-fluoro-1-isopropyl-3-(o-tolyl)quinolin-4(1H)-one] |  | 9 |
| CCn1c(CO)nn(-c2cc3c(cc2F)C(=O)C(c2ccccc2C)CN3C(C)C)c1=O (stereo not drawn) [Example 11, 7-(4-Ethyl-3-(hydroxymethyl)-5-oxo-4,5-dihydro-1H-1,2,4-triazol-1-yl)-6-fluoro-1-isopropyl-3-(o-tolyl)-2,3-dihydroquinolin-4(1H)-one] |  | 0.5 |
| CCn1c(CO)nn(-c2cc3c(cc2F)c(=O)c(-c2c(F)cccc2Cl)cn3C(C)C)c1=O [Example 12, 3-(2-Chloro-6-fluorophenyl)-7-(4-ethyl-3-(hydroxymethyl)-5-oxo-4,5-dihydro-1H-1,2,4-triazol-1-yl)-6-fluoro-1-isopropylquinolin-4(1H)-one] |  | 30 |

Other lines, results leading:

| IC50 (human DHODH) [nM] | IC50 (MOLM-13 cells) [nM] | SMILES |
| --- | --- | --- |
| 5.62 | 4 | CCn1c(CO)nn(-c2cc3c(cc2F)C(O)C(c2ccccc2C)CN3C(C)C)c1=O (racemic) [Example 14, Racemic 4-Ethyl-2-(6-fluoro-4-hydroxy-1-isopropyl-3-(o-tolyl)-1,2,3,4-tetrahydroquinolin-7-yl)-5-(hydroxymethyl)-2,4-dihydro-3H-1,2,4-triazol-3-one] |
| 7.06 | 4 | CCn1c(CO)nn(-c2cc3c(cc2F)C(=O)C(C)(c2ccccc2C)CN3C(C)C)c1=O (racemic) [Example 19, Racemic 7-(4-Ethyl-3-(hydroxymethyl)-5-oxo-4,5-dihydro-1H-1,2,4-triazol-1-yl)-6-fluoro-1-isopropyl-3-methyl-3-(o-tolyl)-23-dihydroquinolin-4(1H)-one] |
| 0.607 | 0.5 | CCn1c(CO)nn(-c2cc3c(cc2F)C(C)(O)C(c2ccccc2C)CN3C(C)C)c1=O (racemic) [Example 20, Racemic 4-Ethyl-2-(6-fluoro-4-hydroxy-1-isopropyl-4-methyl-3-(o-tolyl)-1,2,3,4-tetrahydroquinolin-7-yl)-5-(hydroxymethyl)-2,4-dihydro-3H-1,2,4-triazol-3-one] |
| 0.256 | 0.1 | CCn1c(CO)nn(-c2cc3c(cc2F)O[C@@H](c2c(F)cccc2Cl)CN3C(C)C)c1=O (single isomer, unassigned) [Example 7, (S*)-1-(2-(2-Chloro-6-fluorophenyl)-7-fluoro-4-isopropyl-3,4-dihydro-2H-benzo[b][1,4]oxazin-6-yl)-4-ethyl-3-(hydroxymethyl)-1H-1,2,4-triazol-5(4H)-one] |
| 5.5 | 3 | CCn1c(CO)nn(-c2cc3c(cc2F)O[C@H](c2c(F)cccc2Cl)CN3C(C)C)c1=O (single isomer, unassigned) [Example 8, (R*)-1-(2-(2-Chloro-6-fluorophenyl)-7-fluoro-4-isopropyl-3,4-dihydro-2H-benzo[b][1,4]oxazin-6-yl)-4-ethyl-3-(hydroxymethyl)-1H-1,2,4-triazol-5(4H)-one] |
| 7.9 | 4 | CCn1c(CO)nn(-c2cc3c(cc2F)[C@@H](O)[C@@H](c2ccccc2C)CN3C(C)C)c1=O (stereo in doubt) [Example 15, 4-Ethyl-2-((3S*,4S*)-6-fluoro-4-hydroxy-1-isopropyl-3-(o-tolyl)-1,2,3,4-tetrahydroquinolin-7-yl)-5-(hydroxymethyl)-2,4-dihydro-3H-1,2,4-triazol-3-one] |
| 2.24 | 2 | CCn1c(CO)nn(-c2cc3c(cc2F)[C@H](O)[C@H](c2ccccc2C)CN3C(C)C)c1=O (stereo in doubt) [Example 16, 4-Ethyl-2-((3R*,4R*)-6-fluoro-4-hydroxy-1-isopropyl-3-(o-tolyl)-1,2,3,4-tetrahydroquinolin-7-yl)-5-(hydroxymethyl)-2,4-dihydro-3H-1,2,4-triazol-3-one] |
|  | 3 | CCn1c(CO)nn(-c2cc3c(cc2F)[C@@H](O)[C@H](c2ccccc2C)CN3C(C)C)c1=O (stereo in doubt) [Example 18, 4-Ethyl-2-((3R*,4S*)-6-fluoro-4-hydroxy-1-isopropyl-3-(o-tolyl)-1,2,3,4-tetrahydroquinolin-7-yl)-5-(hydroxymethyl)-2,4-dihydro-3H-1,2,4-triazol-3-one] |
| 2.42 | 3 | CCn1c(CO)nn(-c2ccc3c(c2)N([C@@H](C)C(F)(F)F)CC(c2c(F)cccc2Cl)N3)c1=O (stereo partly drawn) [Example 4, 2-(2-(2-Chloro-6-fluorophenyl)-4-((S)-1,1,1-trifluoropropan-2-yl)-1,2,3,4-tetrahydroquinoxalin-6-yl)-4-ethyl-5-(hydroxymethyl)-2,4-dihydro-3H-1,2,4-triazol-3-one] |
| 0.504 | ~0.3 | CCn1c(CO)nn(-c2cc3c(cc2F)OC(c2c(F)cccc2Cl)CN3C(C)C)c1=O (stereo not drawn) [Example 6, 1-(2-(2-Chloro-6-fluorophenyl)-7-fluoro-4-isopropyl-3,4-dihydro-2H-benzo[b][1,4]oxazin-6-yl)-4-ethyl-3-(hydroxymethyl)-1H-1,2,4-triazol-5(4H)-one] |
| 3.71 | 2 | CCn1c(CO)nn(-c2cc3c(cc2F)C(C)=C(c2ccccc2C)CN3C(C)C)c1=O [Example 21, 4-Ethyl-2-(6-fluoro-1-isopropyl-4-methyl-3-(o-tolyl)-1,2-dihydroquinolin-7-yl)-5-(hydroxymethyl)-2,4-dihydro-3H-1,2,4-triazol-3-one] |
